# Reference: ChEMBL document CHEMBL1201862, “PubChem BioAssay data set” (2004)
#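 48-hour exposure; five concentrations; linearly interpolated endpoints. GI50 is the concentration that inhibits growth by half.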 The source made the active and inactive calls. No stated cut-off is given here; in the data, active = GI50 up to about 1.1 µM and inactive = higher.
# Assays:
# Assay in all cases: growth of human tumour cells (NCI), 48 h
# M14 = test system: M14
# DMS-273 = test system: DMS-273
# NCI-H23 = test system: NCI-H23
# SNB-78 = test system: SNB-78
# HL-60 = test system: HL-60
# SF-268 = test system: SF-268
# SNB-75 = test system: SNB-75
# KM12 = test system: KM12
# HT-29 = test system: HT-29
# K562 = test system: K562
# IGROV-1 = test system: IGROV-1
# TK-10 = test system: TK-10
# HOP-62 = test system: HOP-62
# XF498 = test system: XF498
# OVCAR-8 = test system: OVCAR-8
# UACC-257 = test system: UACC-257
# RPMI-8226 = test system: RPMI-8226
# DMS-114 = test system: DMS-114
# HCT-116 = test system: HCT-116
# SK-MEL-28 = test system: SK-MEL-28
# SF-539 = test system: SF-539
# SF-295 = test system: SF-295
# HOP-18 = test system: HOP-18
# LXFL 529 = test system: LXFL 529
# CCRF-CEM = test system: CCRF-CEM
# NCI-H226 = test system: NCI-H226
# 786-0 = test system: 786-0
# EKVX = test system: EKVX
# HOP-92 = test system: HOP-92
# DLD-1 = test system: DLD-1
# MOLT-4 = test system: MOLT-4
# COLO 205 = test system: COLO 205
# SK-OV-3 = test system: SK-OV-3
# SR = test system: SR
# NCI-H460 = test system: NCI-H460
# SN12C = test system: SN12C
# A549 = test system: A549
# RXF 393 = test system: RXF 393
# OVCAR-4 = test system: OVCAR-4
# SK-MEL-5 = test system: SK-MEL-5
# UO-31 = test system: UO-31
# CAKI-1 = test system: CAKI-1
# SK-MEL-2 = test system: SK-MEL-2
# UACC-62 = test system: UACC-62
# M19-MEL = test system: M19-MEL
# OVCAR-5 = test system: OVCAR-5
# SW-620 = test system: SW-620
# U-251 = test system: U-251
# ACHN = test system: ACHN
# Malme-3M = test system: Malme-3M
# KM-20L2 = test system: KM-20L2
# OVCAR-3 = test system: OVCAR-3
# A498 = test system: A498
# HCT-15 = test system: HCT-15
# LOX IMVI = test system: LOX IMVI
# HCC 2998 = test system: HCC 2998
# RXF 631 = test system: RXF 631
# SNB-19 = test system: SNB-19
# NCI-H522 = test system: NCI-H522
structure (smiles),measurement,setting,value
COc1ccc(/C=N/NS(=O)(=O)c2ccccc2)cc1,GI50,M14,> 100 µM (inactive)
same,GI50,DMS-273,> 100 µM (inactive)
same,GI50,NCI-H23,> 100 µM (inactive)
same,GI50,SNB-78,> 100 µM (inactive)
same,GI50,HL-60,> 100 µM (inactive)
same,GI50,SF-268,> 100 µM (inactive)
same,GI50,SNB-75,> 100 µM (inactive)
same,GI50,KM12,> 100 µM (inactive)
same,GI50,HT-29,> 100 µM (inactive)
same,GI50,K562,> 100 µM (inactive)
same,GI50,IGROV-1,> 100 µM (inactive)
same,GI50,TK-10,> 100 µM (inactive)
same,GI50,HOP-62,> 100 µM (inactive)
same,GI50,XF498,> 100 µM (inactive)
same,GI50,OVCAR-8,> 100 µM (inactive)
same,GI50,UACC-257,> 100 µM (inactive)
same,GI50,RPMI-8226,> 100 µM (inactive)
same,GI50,DMS-114,63.1 µM (inactive)
same,GI50,HCT-116,> 100 µM (inactive)
same,GI50,SK-MEL-28,> 100 µM (inactive)
same,GI50,SF-539,> 100 µM (inactive)
same,GI50,SF-295,93.5 µM (inactive)
same,GI50,HOP-18,> 100 µM (inactive)
same,GI50,LXFL 529,> 100 µM (inactive)
same,GI50,CCRF-CEM,> 100 µM (inactive)
same,GI50,NCI-H226,> 100 µM (inactive)
same,GI50,786-0,> 100 µM (inactive)
same,GI50,EKVX,> 100 µM (inactive)
same,GI50,HOP-92,> 100 µM (inactive)
same,GI50,DLD-1,> 100 µM (inactive)
same,GI50,MOLT-4,> 100 µM (inactive)
same,GI50,COLO 205,> 100 µM (inactive)
same,GI50,SK-OV-3,> 100 µM (inactive)
same,GI50,SR,> 100 µM (inactive)
same,GI50,NCI-H460,> 100 µM (inactive)
same,GI50,SN12C,> 100 µM (inactive)
same,GI50,A549,> 100 µM (inactive)
same,GI50,RXF 393,> 100 µM (inactive)
same,GI50,OVCAR-4,> 100 µM (inactive)
same,GI50,SK-MEL-5,> 100 µM (inactive)
same,GI50,UO-31,> 100 µM (inactive)
same,GI50,CAKI-1,> 100 µM (inactive)
same,GI50,SK-MEL-2,> 100 µM (inactive)
same,GI50,UACC-62,> 100 µM (inactive)
same,GI50,M19-MEL,> 100 µM (inactive)
same,GI50,OVCAR-5,> 100 µM (inactive)
same,GI50,SW-620,> 100 µM (inactive)
same,GI50,U-251,> 100 µM (inactive)
same,GI50,ACHN,> 100 µM (inactive)
same,GI50,Malme-3M,> 100 µM (inactive)
same,GI50,KM-20L2,> 100 µM (inactive)
same,GI50,OVCAR-3,> 100 µM (inactive)
same,GI50,A498,> 100 µM (inactive)
same,GI50,HCT-15,> 100 µM
same,GI50,LOX IMVI,> 100 µM (inactive)
same,GI50,HCC 2998,> 100 µM (inactive)
N#Cc1cccc(C2SCc3nc4ccccc4n32)c1 (centres undefined),GI50,DMS-273,> 100 µM (inactive)
same,GI50,NCI-H23,74.8 µM (inactive)
same,GI50,SNB-78,> 100 µM (inactive)
same,GI50,HL-60,62.8 µM (inactive)
same,GI50,SF-268,> 100 µM (inactive)
same,GI50,KM12,> 100 µM (inactive)
same,GI50,HT-29,> 100 µM (inactive)
same,GI50,K562,54.6 µM (inactive)
same,GI50,IGROV-1,32.9 µM (inactive)
same,GI50,TK-10,> 100 µM (inactive)
same,GI50,HOP-62,> 100 µM (inactive)
same,GI50,XF498,33.6 µM (inactive)
same,GI50,OVCAR-8,> 100 µM (inactive)
same,GI50,UACC-257,80 µM (inactive)
same,GI50,DMS-114,49.4 µM (inactive)
same,GI50,RXF 631,> 100 µM (inactive)
same,GI50,SK-MEL-28,> 100 µM (inactive)
same,GI50,SNB-19,> 100 µM (inactive)
same,GI50,SF-539,> 100 µM (inactive)
same,GI50,SF-295,> 100 µM (inactive)
same,GI50,LXFL 529,42.1 µM (inactive)
same,GI50,CCRF-CEM,> 100 µM (inactive)
same,GI50,NCI-H226,28.9 µM (inactive)
same,GI50,786-0,> 100 µM (inactive)
same,GI50,EKVX,67.6 µM (inactive)
same,GI50,HOP-92,36.3 µM (inactive)
same,GI50,DLD-1,65.5 µM (inactive)
same,GI50,MOLT-4,38.7 µM (inactive)
same,GI50,NCI-H522,69.3 µM (inactive)
same,GI50,COLO 205,> 100 µM (inactive)
same,GI50,SK-OV-3,> 100 µM (inactive)
same,GI50,SR,38.4 µM (inactive)
same,GI50,NCI-H460,> 100 µM (inactive)
same,GI50,SN12C,75.9 µM (inactive)
same,GI50,A549,92.7 µM (inactive)
same,GI50,RXF 393,80.2 µM (inactive)
same,GI50,OVCAR-4,86.7 µM (inactive)
same,GI50,SK-MEL-5,19.8 µM (inactive)
same,GI50,UO-31,61.1 µM (inactive)
same,GI50,CAKI-1,32.4 µM (inactive)
same,GI50,SK-MEL-2,> 100 µM (inactive)
same,GI50,UACC-62,37.2 µM (inactive)
same,GI50,OVCAR-5,48 µM (inactive)
same,GI50,SW-620,> 100 µM (inactive)
same,GI50,U-251,> 100 µM (inactive)
same,GI50,ACHN,74 µM (inactive)
same,GI50,Malme-3M,> 100 µM (inactive)
same,GI50,KM-20L2,> 100 µM (inactive)
same,GI50,A498,95.9 µM (inactive)
same,GI50,LOX IMVI,> 100 µM (inactive)
C/C(=C\C(C)COCc1ccccc1)[C@H](COCc1ccccc1)OCc1ccccc1 (some centres undefined),GI50,M14,> 100 µM (inactive)
same,GI50,DMS-273,> 100 µM (inactive)
same,GI50,NCI-H23,48 µM (inactive)
same,GI50,SNB-78,> 100 µM (inactive)
same,GI50,HL-60,> 10 µM (inactive)
same,GI50,SF-268,76.2 µM (inactive)
same,GI50,SNB-75,80.2 µM (inactive)
same,GI50,KM12,> 100 µM (inactive)
same,GI50,HT-29,> 100 µM (inactive)
same,GI50,K562,73.1 µM (inactive)
same,GI50,IGROV-1,> 100 µM (inactive)
same,GI50,TK-10,> 100 µM (inactive)
same,GI50,HOP-62,> 100 µM (inactive)
same,GI50,XF498,8.53 µM (inactive)
same,GI50,OVCAR-8,> 100 µM (inactive)
same,GI50,RPMI-8226,50.1 µM (inactive)
same,GI50,DMS-114,57.5 µM (inactive)
same,GI50,HCT-116,85.1 µM (inactive)
same,GI50,RXF 631,> 100 µM (inactive)
same,GI50,SK-MEL-28,> 100 µM (inactive)
same,GI50,SNB-19,> 100 µM (inactive)
same,GI50,SF-539,> 100 µM (inactive)
same,GI50,SF-295,> 100 µM (inactive)
same,GI50,LXFL 529,82 µM (inactive)
same,GI50,CCRF-CEM,68.1 µM (inactive)
same,GI50,NCI-H226,> 100 µM (inactive)
same,GI50,786-0,> 100 µM (inactive)
same,GI50,EKVX,> 100 µM (inactive)
same,GI50,HOP-92,10.4 µM (inactive)
same,GI50,MOLT-4,46.9 µM (inactive)
same,GI50,NCI-H522,88.5 µM (inactive)
same,GI50,COLO 205,> 100 µM (inactive)
same,GI50,SK-OV-3,> 100 µM (inactive)
same,GI50,NCI-H460,> 100 µM (inactive)
same,GI50,SN12C,> 100 µM (inactive)
same,GI50,A549,> 100 µM (inactive)
same,GI50,RXF 393,26.9 µM (inactive)
same,GI50,OVCAR-4,63.2 µM (inactive)
same,GI50,SK-MEL-5,37.6 µM (inactive)
same,GI50,UO-31,83.9 µM (inactive)
same,GI50,SK-MEL-2,> 100 µM (inactive)
same,GI50,UACC-62,> 100 µM (inactive)
same,GI50,M19-MEL,> 100 µM (inactive)
same,GI50,OVCAR-5,> 100 µM (inactive)
same,GI50,SW-620,> 100 µM (inactive)
same,GI50,U-251,> 100 µM (inactive)
same,GI50,ACHN,> 100 µM (inactive)
same,GI50,KM-20L2,> 100 µM (inactive)
same,GI50,OVCAR-3,> 100 µM (inactive)
same,GI50,A498,> 100 µM (inactive)
same,GI50,HCT-15,> 100 µM
same,GI50,LOX IMVI,24.2 µM (inactive)
same,GI50,HCC 2998,> 100 µM (inactive)
